Test system: MCH receptors
Experiment: MCH receptor activity class (method not given)
[1] = class by percent of control at 10^-7 M or IC50
[2] = activity class 1-3: percent of control at 10^-7 M or IC50
[3] = MCH receptor, class by percent of control at 10^-7 M or IC50
[4] = class 1-3 by percent of control at 10^-7 M or IC50
[5] = MCH receptor activity class 1-3 (percent of control at 10^-7 M or IC50)
[6] = class by percent of control at 10^−7 M or IC50

SMILES | class [1] | also measured
COc1ccc(C)cc1NC(=S)N[C@H]1CC[C@@H](Nc2nc3c(c(N(C)C)n2)CCCC3)CC1 [compound 1750] | 2 (Class 2: The value of percent of control at 10^−7 M was from 40% to 60% or the value of IC′50 was from 50 nM to 200 nM.) | –
COc1ccc(NC(=S)N[C@H]2CC[C@@H](Nc3cc(N(C)C)c4ccccc4n3)CC2)cc1OC [compound 2176] | 3 (Class 3 The value of percent of control at 10^−7 M was more than 60% or the value of IC50 was more than 200 nM.) | –
COC(CN[C@H]1CC[C@@H](Nc2nccc(N(C)C)n2)CC1)c1ccccc1 (relative stereo) [compound 1516] | – | class [2]: 3 (Class 3 The value of percent of control at 10^−7 M was more than 60% or the value of IC50 was more than 200 nM.)
CN(C)c1ccnc(N[C@H]2CC[C@@H](NC(=O)c3cccc(-n4c(-c5ccc(Br)cc5)cc5c4CC(C)(C)CC5=O)c3)CC2)n1 [compound 859] | 3 (Class 3 The value of percent of control at 10^−7 M was more than 60% or the value of IC50 was more than 200 nM.) | –
CCO[Si](CCCNC(=O)N[C@H]1CC[C@@H](Nc2nc3c(c(N(C)C)n2)CCCC3)CC1)(OCC)OCC [compound 1839] | 3 (Class 3 The value of percent of control at 10^−7 M was more than 60% or the value of IC50 was more than 200 nM.) | –
COC(=O)c1ccccc1Sc1nc2sccn2c1CN[C@H]1CC[C@@H](Nc2nccc(N(C)C)n2)CC1 [compound 1237] | 3 (Class 3 The value of percent of control at 10^−7 M was more than 60% or the value of IC50 was more than 200 nM.) | –
COc1ccc(Br)cc1CNC[C@H]1CC[C@@H](Nc2nc3c(c(N(C)C)n2)CCCC3)CC1 [compound 1387] | 3 (Class 3 The value of percent of control at 10^−7 M was more than 60% or the value of IC50 was more than 200 nM.) | –
CN(C)c1nc(N[C@H]2CC[C@@H](NC(=S)Nc3cc(C(F)(F)F)ccc3Cl)CC2)nc2c1CCCC2 [compound 2003] | – | class [3]: 3 (Class 3 The value of percent of control at 10^−7 M was more than 60% or the value of IC50 was more than 200 nM.)
COc1ccc(CC(=O)NC[C@H]2CC[C@@H](Nc3nccc(N(C)C)n3)CC2)cc1 [compound 414, N-[(cis-4-{[4-(dimethylamino)pyrimidin-2-yl]amino}cyclohexyl)methyl]-2-(4-methoxyphenyl)acetamide] | – | class [4]: 2 (Class 2: The value of percent of control at 10^−7 M was from 40% to 60% or the value of IC′50 was from 50 nM to 200 nM.)
Cc1onc(-c2ccccc2)c1NC(=O)N[C@H]1CC[C@@H](Nc2cc(N(C)C)c3ccccc3n2)CC1 [compound 2166] | 3 (Class 3 The value of percent of control at 10^−7 M was more than 60% or the value of IC50 was more than 200 nM.) | –
COc1cc(NC(=O)N[C@H]2CC[C@@H](Nc3nccc(N(C)C)n3)CC2)cc(OC)c1OC [compound 2239, N-(cis-4-{[4-(dimethylamino)pyrimidin-2-yl]amino}cyclohexyl)-N′-(3,4,5-trimethoxyphenyl)urea] | 1 (Class 1: The value of percent of control at 10^−7 M was less than 40% or the value of IC50 was less than 50 nM.) | –
CN(C)c1ccnc(N[C@H]2CC[C@@H](NC(=O)Nc3ccccc3-c3ccccc3)CC2)n1 [compound 2214] | 3 (Class 3 The value of percent of control at 10^−7 M was more than 60% or the value of IC50 was more than 200 nM.) | –
CC(C(=O)N[C@H]1CC[C@@H](Nc2cc(N(C)C)c3ccccc3n2)CC1)c1ccc(C(=O)c2cccs2)cc1 (relative stereo) [compound 744] | 3 (Class 3 The value of percent of control at 10^−7 M was more than 60% or the value of IC50 was more than 200 nM.) | –
C=CCSc1ncccc1C(=O)N[C@H]1CC[C@@H](Nc2nccc(N(C)C)n2)CC1 [compound 923] | 3 (Class 3 The value of percent of control at 10^−7 M was more than 60% or the value of IC50 was more than 200 nM.) | –
CC(C)c1cccc(C(C)C)c1NC(=O)NC[C@H]1CC[C@@H](Nc2cc(N(C)C)c3ccccc3n2)CC1 [compound 2396] | – | class [5]: 1 (Class 1: The value of percent of control at 10^−7 M was less than 40% or the value of IC50 was less than 50 nM.)
COc1cccc(CN[C@H]2CC[C@@H](Nc3nccc(N(C)C)n3)CC2)c1 [compound 1224] | 3 (Class 3 The value of percent of control at 10^−7 M was more than 60% or the value of IC50 was more than 200 nM.) | –
CCOC(=O)c1cccc(NC(=S)N[C@H]2CC[C@@H](Nc3cc(N(C)C)c4ccccc4n3)CC2)c1 [compound 2293] | – | class [5]: 3 (Class 3 The value of percent of control at 10^−7 M was more than 60% or the value of IC50 was more than 200 nM.)
COc1ccc(NC(=O)N[C@H]2CC[C@@H](Nc3cc(N(C)C)c4ccccc4n3)CC2)c(C)c1 [compound 2156] | 3 (Class 3 The value of percent of control at 10^−7 M was more than 60% or the value of IC50 was more than 200 nM.) | –
Cc1ccc(F)cc1NC(=O)N[C@H]1CC[C@@H](Nc2nc3c(c(N(C)C)n2)CCCC3)CC1 [compound 1902] | – | class [3]: 3 (Class 3 The value of percent of control at 10^−7 M was more than 60% or the value of IC50 was more than 200 nM.)
CSc1sc(C(=O)N[C@H]2CC[C@@H](Nc3nccc(N(C)C)n3)CC2)c(I)c1S(=O)(=O)C(C)C [compound 905] | 2 (Class 2: The value of percent of control at 10^−7 M was from 40% to 60% or the value of IC′50 was from 50 nM to 200 nM.) | –

SMILES | class [1] | also measured
CN(C)c1ccnc(N[C@H]2CC[C@@H](NC(=O)CCCc3cccs3)CC2)n1 [compound 886] | 3 (Class 3 The value of percent of control at 10^−7 M was more than 60% or the value of IC50 was more than 200 nM.) | –
CN(C)c1nc(N[C@H]2CC[C@@H](NC(=O)OCC(C)(C)C)CC2)nc2c1CCCC2 [compound 1580] | – | class [2]: 3 (Class 3 The value of percent of control at 10^−7 M was more than 60% or the value of IC50 was more than 200 nM.)
CN(C)c1ccnc(N[C@H]2CC[C@@H](NC(=O)/C=C/c3cccc([N+](=O)[O-])c3)CC2)n1 [compound 822] | 3 (Class 3 The value of percent of control at 10^−7 M was more than 60% or the value of IC50 was more than 200 nM.) | –
CSc1ncccc1C(=O)NC[C@H]1CC[C@@H](Nc2nc3c(c(N(C)C)n2)CCCC3)CC1 [compound 604] | 3 (Class 3 The value of percent of control at 10^−7 M was more than 60% or the value of IC50 was more than 200 nM.) | –
CN(C)c1ccnc(N[C@H]2CC[C@@H](NC(=O)OCc3ccccc3)CC2)n1 [compound 1631] | – | class [2]: 3 (Class 3 The value of percent of control at 10^−7 M was more than 60% or the value of IC50 was more than 200 nM.)
Cc1ccc(C(=O)N[C@H]2CC[C@@H](Nc3nc4c(c(N(C)C)n3)CCCC4)CC2)cc1F [compound 510] | – | class [4]: 2 (Class 2: The value of percent of control at 10^−7 M was from 40% to 60% or the value of IC′50 was from 50 nM to 200 nM.)
CN(C)c1ccnc(N[C@H]2CC[C@@H](NC(=S)NCc3ccccc3Cl)CC2)n1 [compound 2324] | – | class [5]: 3 (Class 3 The value of percent of control at 10^−7 M was more than 60% or the value of IC50 was more than 200 nM.)
CN(C)c1nc(N[C@H]2CC[C@@H](NC(=S)NC3CCCCC3)CC2)nc2c1CCCC2 [compound 1931] | – | class [3]: 3 (Class 3 The value of percent of control at 10^−7 M was more than 60% or the value of IC50 was more than 200 nM.)
CN(C)c1cc(N[C@H]2CC[C@@H](NC(=O)CCC(=O)c3cccs3)CC2)nc2ccccc12 [compound 745] | 3 (Class 3 The value of percent of control at 10^−7 M was more than 60% or the value of IC50 was more than 200 nM.) | –
CN(C)c1cc(N[C@H]2CC[C@@H](NCc3c[nH]nc3-c3ccc(C(F)(F)F)cc3)CC2)nc2ccccc12 [compound 1098] | – | class (activity class per percent of control at 10^-7 M or IC50): 3 (Class 3 The value of percent of control at 10^−7 M was more than 60% or the value of IC50 was more than 200 nM.)
CN(C)c1nc(N[C@H]2CC[C@@H](NC(=S)Nc3ccc(F)c(C(F)(F)F)c3)CC2)nc2c1CCCC2 [compound 1993] | – | class [3]: 3 (Class 3 The value of percent of control at 10^−7 M was more than 60% or the value of IC50 was more than 200 nM.)
CN(C)c1ccnc(N[C@H]2CC[C@@H](CNCc3c(F)c(F)cc(F)c3F)CC2)n1 [compound 1533] | – | class [2]: 3 (Class 3 The value of percent of control at 10^−7 M was more than 60% or the value of IC50 was more than 200 nM.)
Cc1ccccc1C(=O)NC[C@H]1CC[C@@H](Nc2cc(N(C)C)c3ccccc3n2)CC1 [compound 223] | 3 (Class 3 The value of percent of control at 10^−7 M was more than 60% or the value of IC50 was more than 200 nM.) | –
Cc1cc(N(C)C)nc(N[C@H]2CC[C@@H](NC(=O)c3ccccc3)CC2)n1 [compound 2951, N-(cis-4-{[4-(dimethylamino)-6-methylpyrimidin-2-yl]amino}cyclohexyl)benzamide] | – | class [6]: 3 (Class 3 The value of percent of control at 10^−7 M was more than 60% or the value of IC50 was more than 200 nM.)
CCc1ccc(CNC[C@H]2CC[C@@H](Nc3nc4c(c(N(C)C)n3)CCCC4)CC2)s1 [compound 1399] | 3 (Class 3 The value of percent of control at 10^−7 M was more than 60% or the value of IC50 was more than 200 nM.) | –
Cc1nc(N[C@H]2CC[C@@H](NC(=O)c3cccc(Br)c3)CC2)nc(N(C)C)c1C [compound 2839, 3-bromo-N-(cis-4-{[4-(dimethylamino)-5,6-dimethylpyrimidin-2-yl]amino}cyclohexyl)benzamide] | – | class [6]: 1 (Class 1: The value of percent of control at 10^−7 M was less than 40% or the value of IC50 was less than 50 nM.)
Cc1cnc(N[C@H]2CC[C@@H](C(=O)Nc3ccc(C(F)(F)F)cc3)CC2)nc1N(C)C [compound 2791, cis-4-{[4-(dimethylamino)-5-methylpyrimidin-2-yl]amino}-N-[4-(trifluoromethyl)phenyl]cyclohexanecarboxamide] | – | class [6]: 1 (Class 1: The value of percent of control at 10^−7 M was less than 40% or the value of IC50 was less than 50 nM.)
CN(C)c1cc(N[C@H]2CC[C@@H](CNC(=O)OCCOCc3ccccc3)CC2)nc2ccccc12 [compound 1559] | – | class [2]: 3 (Class 3 The value of percent of control at 10^−7 M was more than 60% or the value of IC50 was more than 200 nM.)
CN(C)c1nc(N[C@H]2CC[C@@H](NC(=O)Nc3c(Br)cc(F)cc3Br)CC2)nc2c1CCCC2 [compound 1799] | 3 (Class 3 The value of percent of control at 10^−7 M was more than 60% or the value of IC50 was more than 200 nM.) | –

Source: patent US20050197350A1, “Novel quinoline, tetrahydroquinazoline, and pyrimidine derivatives and methods of treatment related to the use thereof” (TAISHO PHARMACEUTICAL CO., LTD., priority 2003, published 2005)
